Measured values published in US9452217B2, “Methods for potentiating immune response for the treatment of infectious diseases and cancer” (Nitor Therapeutics, priority 2013, dated 2016).

Experiments:
Assay type in all cases: cell-based
human TLR2 = molecular target: T1, human TLR2 (Homo sapiens, UniProt O60603); assay: TLR ligand screening: NF-κB activation (SEAP reporter) in HEK293 cells expressing TLR2; conditions: one concentration: Guanosine 100 uM, NTR001 10 uM, Inosine 100 uM; FIG. 2
T1 construct: expressed in transfected cells; host or cells: HEK293
Experimental: (§1) Method: TLR stimulation is tested by assessing NF-κB activation in HEK293 cells expressing a given TLR. The Secreted Embryonic Alkaline Phosphatase (SEAP) reporter is under the control of a promoter inducible by the transcription factor NF-κB. This reporter gene allows the monitoring of signaling through the TLR, based on the activation of NF-κB. The compounds are evaluated at one concentration and compared to control ligands. This step is performed in triplicate.

human TLR3 = molecular target: T2, human TLR3 (Homo sapiens, UniProt O15455); assay: TLR ligand screening: NF-κB activation (SEAP reporter) in HEK293 cells expressing TLR3; conditions: one concentration: NTR001 10 uM, Inosine 100 uM; FIG. 2
T2 construct: expressed in transfected cells; host or cells: HEK293
T2 sequence (O15455 24-904): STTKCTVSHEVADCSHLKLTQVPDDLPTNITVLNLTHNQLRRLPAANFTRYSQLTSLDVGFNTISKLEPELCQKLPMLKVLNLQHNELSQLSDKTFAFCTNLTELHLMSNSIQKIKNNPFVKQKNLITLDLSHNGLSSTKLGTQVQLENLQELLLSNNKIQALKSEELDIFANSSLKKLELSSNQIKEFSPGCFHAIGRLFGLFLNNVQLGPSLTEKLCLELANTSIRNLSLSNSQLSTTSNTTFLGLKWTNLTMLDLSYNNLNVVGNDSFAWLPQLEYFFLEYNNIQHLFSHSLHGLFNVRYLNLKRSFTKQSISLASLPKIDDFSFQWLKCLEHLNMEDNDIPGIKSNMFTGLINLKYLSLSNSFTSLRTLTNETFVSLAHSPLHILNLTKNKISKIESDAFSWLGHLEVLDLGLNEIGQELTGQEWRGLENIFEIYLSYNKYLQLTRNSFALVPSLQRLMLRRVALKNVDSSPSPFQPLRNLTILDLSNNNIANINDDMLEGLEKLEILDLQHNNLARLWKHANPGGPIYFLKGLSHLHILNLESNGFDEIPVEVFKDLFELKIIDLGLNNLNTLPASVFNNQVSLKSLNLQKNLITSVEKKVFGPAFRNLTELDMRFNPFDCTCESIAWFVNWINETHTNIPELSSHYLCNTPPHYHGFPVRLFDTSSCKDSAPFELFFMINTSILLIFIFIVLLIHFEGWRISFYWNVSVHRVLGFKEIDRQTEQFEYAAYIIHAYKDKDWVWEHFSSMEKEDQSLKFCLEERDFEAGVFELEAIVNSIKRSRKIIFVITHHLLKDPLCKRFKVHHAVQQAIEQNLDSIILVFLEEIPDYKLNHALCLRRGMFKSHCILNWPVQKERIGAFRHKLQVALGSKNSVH
Experimental: as §1

human TLR5 = molecular target: T3, human TLR5 (Homo sapiens, UniProt O60602); assay: TLR ligand screening: NF-κB activation (SEAP reporter) in HEK293 cells expressing TLR5; conditions: one concentration: NTR001 10 uM, Inosine 100 uM; FIG. 2
T3 construct: expressed in transfected cells; host or cells: HEK293
Experimental: as §1

human TLR9 = molecular target: T4, human TLR9 (Homo sapiens, UniProt Q9NR96); assay: TLR ligand screening: NF-κB activation (SEAP reporter) in HEK293 cells expressing TLR9; conditions: one concentration: NTR001 10 uM, Inosine 100 uM; FIG. 2
T4 construct: expressed in transfected cells; host or cells: HEK293
T4 sequence (Q9NR96 26-1032): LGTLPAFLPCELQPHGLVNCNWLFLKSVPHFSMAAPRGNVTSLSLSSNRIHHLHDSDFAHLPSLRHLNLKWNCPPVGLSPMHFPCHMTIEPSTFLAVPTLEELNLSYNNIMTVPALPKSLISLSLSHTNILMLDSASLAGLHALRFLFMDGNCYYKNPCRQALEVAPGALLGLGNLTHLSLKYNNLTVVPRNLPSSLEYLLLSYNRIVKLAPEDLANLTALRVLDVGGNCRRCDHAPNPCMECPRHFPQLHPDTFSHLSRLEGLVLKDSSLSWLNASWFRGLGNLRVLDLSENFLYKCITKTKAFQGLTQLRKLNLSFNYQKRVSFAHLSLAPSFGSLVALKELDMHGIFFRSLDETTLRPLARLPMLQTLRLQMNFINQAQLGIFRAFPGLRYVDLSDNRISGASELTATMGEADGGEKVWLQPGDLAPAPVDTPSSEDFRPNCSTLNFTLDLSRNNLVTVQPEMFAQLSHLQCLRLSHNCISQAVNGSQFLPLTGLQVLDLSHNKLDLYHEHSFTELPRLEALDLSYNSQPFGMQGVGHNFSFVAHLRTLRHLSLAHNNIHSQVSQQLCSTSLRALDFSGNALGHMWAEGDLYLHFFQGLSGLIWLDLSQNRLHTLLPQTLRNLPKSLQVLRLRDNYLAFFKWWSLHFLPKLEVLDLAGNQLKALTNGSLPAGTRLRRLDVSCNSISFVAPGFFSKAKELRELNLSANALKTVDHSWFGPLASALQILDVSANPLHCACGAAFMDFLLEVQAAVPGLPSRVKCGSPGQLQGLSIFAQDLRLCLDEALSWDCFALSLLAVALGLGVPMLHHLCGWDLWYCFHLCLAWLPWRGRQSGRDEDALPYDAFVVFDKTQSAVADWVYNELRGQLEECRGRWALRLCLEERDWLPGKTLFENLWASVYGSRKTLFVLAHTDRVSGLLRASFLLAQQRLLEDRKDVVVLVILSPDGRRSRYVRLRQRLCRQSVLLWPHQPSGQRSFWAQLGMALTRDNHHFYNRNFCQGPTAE
Experimental: as §1

T1 sequence (O60603 21-784): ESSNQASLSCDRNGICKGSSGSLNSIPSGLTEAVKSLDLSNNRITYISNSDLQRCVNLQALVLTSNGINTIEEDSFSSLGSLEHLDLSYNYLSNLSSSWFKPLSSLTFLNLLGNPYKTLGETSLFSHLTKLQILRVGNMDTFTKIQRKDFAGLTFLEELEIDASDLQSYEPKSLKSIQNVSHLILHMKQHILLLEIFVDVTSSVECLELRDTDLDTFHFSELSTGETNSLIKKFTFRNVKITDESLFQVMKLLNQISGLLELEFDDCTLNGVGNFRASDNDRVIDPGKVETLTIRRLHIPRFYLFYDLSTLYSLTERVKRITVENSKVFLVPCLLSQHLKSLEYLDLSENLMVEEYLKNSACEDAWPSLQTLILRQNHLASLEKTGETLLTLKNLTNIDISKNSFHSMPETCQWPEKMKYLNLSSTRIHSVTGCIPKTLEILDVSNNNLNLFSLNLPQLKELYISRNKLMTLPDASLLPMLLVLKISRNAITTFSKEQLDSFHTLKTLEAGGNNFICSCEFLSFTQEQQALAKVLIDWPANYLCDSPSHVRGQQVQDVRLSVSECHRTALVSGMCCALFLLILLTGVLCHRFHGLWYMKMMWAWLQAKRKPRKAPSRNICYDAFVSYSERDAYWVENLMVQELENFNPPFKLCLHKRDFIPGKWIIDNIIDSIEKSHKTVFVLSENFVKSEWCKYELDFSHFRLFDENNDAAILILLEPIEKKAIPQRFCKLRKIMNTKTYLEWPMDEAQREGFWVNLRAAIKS
T3 sequence (O60602 21-858): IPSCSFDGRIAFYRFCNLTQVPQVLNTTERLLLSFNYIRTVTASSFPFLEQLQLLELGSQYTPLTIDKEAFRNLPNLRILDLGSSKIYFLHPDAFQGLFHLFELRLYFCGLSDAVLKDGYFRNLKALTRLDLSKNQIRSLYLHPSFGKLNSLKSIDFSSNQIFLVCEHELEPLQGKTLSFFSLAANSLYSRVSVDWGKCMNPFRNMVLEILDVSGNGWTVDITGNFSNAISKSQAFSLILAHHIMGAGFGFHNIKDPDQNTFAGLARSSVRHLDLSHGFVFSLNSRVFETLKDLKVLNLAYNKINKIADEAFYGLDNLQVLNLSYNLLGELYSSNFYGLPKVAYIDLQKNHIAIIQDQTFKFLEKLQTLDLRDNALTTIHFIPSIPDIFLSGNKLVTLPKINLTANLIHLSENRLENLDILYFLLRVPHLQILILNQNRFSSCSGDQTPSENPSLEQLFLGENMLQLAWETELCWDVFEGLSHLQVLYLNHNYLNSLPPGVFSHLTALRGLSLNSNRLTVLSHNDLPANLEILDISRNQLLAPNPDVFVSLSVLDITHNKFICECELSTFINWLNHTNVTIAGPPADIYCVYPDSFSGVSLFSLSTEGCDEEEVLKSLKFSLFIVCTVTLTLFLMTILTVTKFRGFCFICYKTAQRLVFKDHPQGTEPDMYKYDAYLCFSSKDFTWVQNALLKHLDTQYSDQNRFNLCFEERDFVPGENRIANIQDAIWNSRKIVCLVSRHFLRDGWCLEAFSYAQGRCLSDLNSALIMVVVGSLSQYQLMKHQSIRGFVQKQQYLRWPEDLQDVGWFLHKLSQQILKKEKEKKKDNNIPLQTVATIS

OC[C@H]1O[C@@H](n2cnc3c(O)ncnc32)[C@H](O)[C@@H]1O [Inosine]
do not exhibit a stimulatory effect: stimulatory effect on human TLR2 (human TLR2) | stimulatory effect on human TLR3 (human TLR3) | stimulatory effect on human TLR5 (human TLR5) | stimulatory effect on human TLR9 (human TLR9)

O=c1[nH]cnc2c([C@@H]3N[C@H](CO)[C@@H](O)[C@H]3O)c[nH]c12 [NTR001, 7-[(2S,3S,4R,5R)-3,4-dihydroxy-5-(hydroxymethyl)-2-pyrrolidinyl]-1,5-dihydro-4H-pyrrolo [3,2-d]pyrimidin-4-one]
do not exhibit a stimulatory effect: stimulatory effect on human TLR2 (human TLR2) | stimulatory effect on human TLR3 (human TLR3) | stimulatory effect on human TLR5 (human TLR5) | stimulatory effect on human TLR9 (human TLR9)
